{"source": "ChEMBL document CHEMBL3232866", "about": "“Design of novel potent antihyperlipidemic agents with antioxidant/anti-inflammatory properties: exploiting phenothiazine's strong antioxidant activity” (J Med Chem, 2014)", "key": {"[1]": {"biological_target": "T1, Prostaglandin G/H synthase 1 (Bos taurus) (UniProt O62664)", "T1 sequence (whole entry)": "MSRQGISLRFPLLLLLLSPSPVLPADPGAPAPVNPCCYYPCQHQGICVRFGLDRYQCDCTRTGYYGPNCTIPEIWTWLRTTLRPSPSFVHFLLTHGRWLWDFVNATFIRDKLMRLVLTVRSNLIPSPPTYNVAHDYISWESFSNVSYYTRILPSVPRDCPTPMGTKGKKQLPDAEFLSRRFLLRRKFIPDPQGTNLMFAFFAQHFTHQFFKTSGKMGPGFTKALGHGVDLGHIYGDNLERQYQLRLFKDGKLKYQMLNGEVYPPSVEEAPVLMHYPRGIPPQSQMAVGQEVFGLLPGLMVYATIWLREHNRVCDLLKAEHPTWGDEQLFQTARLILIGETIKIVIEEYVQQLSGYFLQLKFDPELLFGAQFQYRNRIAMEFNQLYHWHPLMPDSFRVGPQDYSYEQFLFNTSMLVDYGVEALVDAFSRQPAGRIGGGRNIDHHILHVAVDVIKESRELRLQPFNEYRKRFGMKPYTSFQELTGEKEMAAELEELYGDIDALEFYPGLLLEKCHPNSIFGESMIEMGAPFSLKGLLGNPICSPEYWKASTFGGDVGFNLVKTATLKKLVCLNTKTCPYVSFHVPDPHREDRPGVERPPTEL", "assay": "Inhibition of bovine COX-1 assessed as PGF2-alpha formation using arachidonic acid as substrate at 20 uM by enzyme immunoassay"}, "Squalene synthase": {"biological_target": "T2, Squalene synthase (Rattus norvegicus, UniProt Q02769)", "T2 sequence (Q02769 whole entry)": "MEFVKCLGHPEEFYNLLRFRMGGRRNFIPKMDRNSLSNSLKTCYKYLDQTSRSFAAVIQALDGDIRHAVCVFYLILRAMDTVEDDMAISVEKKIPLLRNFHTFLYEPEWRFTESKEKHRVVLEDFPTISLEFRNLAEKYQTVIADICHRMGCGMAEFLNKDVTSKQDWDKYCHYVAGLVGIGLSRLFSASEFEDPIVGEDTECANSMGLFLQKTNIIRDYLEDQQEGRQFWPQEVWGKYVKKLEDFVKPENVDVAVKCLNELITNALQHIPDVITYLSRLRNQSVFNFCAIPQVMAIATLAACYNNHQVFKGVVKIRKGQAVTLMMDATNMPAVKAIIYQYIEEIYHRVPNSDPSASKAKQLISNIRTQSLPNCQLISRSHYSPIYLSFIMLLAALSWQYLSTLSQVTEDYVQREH", "assay": "(§1) Inhibition of squalene synthase in rat liver microsomes assessed as decrease in conversion of [3H]FPP to squalene"}, "[2]": {"biological_target": "T3, Squalene synthase (Rattus norvegicus) (UniProt Q02769)", "T3 sequence (whole entry)": "T2 sequence (Q02769 whole entry)", "assay": "as §1"}, "[3]": {"assay": "Antioxidant activity in rat liver microsome membrane assessed as inhibition of lipid peroxidation after 45 mins by TBARS-based spectrophotometric assay", "format": "functional, microsomes"}, "Mus musculus [4]": {"tested_on": "Mus musculus", "assay": "Antidyslipidemic activity in chronic high-fat diet (2.5 w/w cholesterol, 0.5% w/w cholic acid, 10% w/w peanut oil) fed SKH-2 mouse assessed as triglyceride level in plasma at 56 umol/kg, ip bid for 30 days measured on day 30", "format": "functional, organism-based"}, "Rattus norvegicus [5]": {"tested_on": "Rattus norvegicus", "assay": "In vivo antidyslipidemic activity against Triton WR 1339-induced hyperlipidemic Wistar rat model assessed as decrease in triglyceride level in plasma at 56 umol/kg, ip administered as single dose 1 hr after Triton WR 1339 challenge measured after 24 hrs", "format": "functional"}, "[6]": {"tested_on": "Radical scavenging activity", "assay": "Antioxidant activity assessed as DPPH radical scavenging activity after 30 mins", "format": "functional"}, "[7]": {"tested_on": "Radical scavenging activity", "assay": "Antioxidant activity assessed as DPPH radical scavenging activity up to 50 uM measured within 15 mins", "format": "functional"}, "Mus musculus [8]": {"tested_on": "Mus musculus", "assay": "Effect on food intake in chronic high-fat diet (2.5 w/w cholesterol, 0.5% w/w cholic acid, 10% w/w peanut oil) fed SKH-2 mouse at 56 umol/kg, ip bid for 30 days", "format": "ADME, organism-based", "conditions": "in vivo, 720 h"}, "Mus musculus [9]": {"tested_on": "Mus musculus", "assay": "Antiatherosclerotic activity in apoE-/- transgenic mouse assessed as decrease in primary atherosclerotic lesions administered for 3.5 months", "format": "functional, organism-based"}, "Rattus norvegicus [10]": {"tested_on": "Rattus norvegicus", "assay": "In vivo antidyslipidemic activity against Triton WR 1339-induced hyperlipidemic Wistar rat model assessed as decrease in total cholesterol level in plasma at 56 umol/kg, ip administered as single dose 1 hr after Triton WR 1339 challenge measured after 24 hrs", "format": "functional"}, "Mus musculus [11]": {"tested_on": "Mus musculus", "assay": "Hepatotoxicity in apoE-/- transgenic mouse assessed as liver enzymes level administered for 3.5 months", "format": "toxicity, organism-based", "conditions": "in vivo"}, "Rattus norvegicus [12]": {"tested_on": "Rattus norvegicus", "assay": "In vivo antidyslipidemic activity against Triton WR 1339-induced hyperlipidemic Wistar rat model assessed as decrease in LDL-cholesterol level in plasma at 56 umol/kg, ip administered as single dose 1 hr after Triton WR 1339 challenge measured after 24 hrs", "format": "functional"}, "Mus musculus [13]": {"tested_on": "Mus musculus", "assay": "Antidyslipidemic activity in chronic high-fat diet (2.5 w/w cholesterol, 0.5% w/w cholic acid, 10% w/w peanut oil) fed SKH-2 mouse assessed as decrease in LDL level in plasma at 56 umol/kg, ip bid for 30 days measured on day 30", "format": "functional", "conditions": "SKH-2, Plasma, 720 h"}, "Mus musculus [14]": {"tested_on": "Mus musculus", "assay": "Antidyslipidemic activity in chronic high-fat diet (2.5 w/w cholesterol, 0.5% w/w cholic acid, 10% w/w peanut oil) fed SKH-2 mouse assessed as increase in HDL level in plasma at 56 umol/kg, ip bid for 30 days measured on day 30", "format": "functional"}, "Mus musculus [15]": {"tested_on": "Mus musculus", "assay": "Antidyslipidemic activity in chronic high-fat diet (2.5 w/w cholesterol, 0.5% w/w cholic acid, 10% w/w peanut oil) fed SKH-2 mouse assessed as HDL/LDL ratio in plasma at 56 umol/kg, ip bid for 30 days measured on day 30 (reference value: 0.2 no unit)", "format": "functional"}, "Mus musculus [16]": {"tested_on": "Mus musculus", "assay": "Antidyslipidemic activity in chronic high-fat diet (2.5 w/w cholesterol, 0.5% w/w cholic acid, 10% w/w peanut oil) fed SKH-2 mouse assessed as decrease in LDL level in plasma at 56 umol/kg, ip bid for 21 days", "format": "functional", "conditions": "SKH-2, Plasma, 504 h"}, "Mus musculus [17]": {"tested_on": "Mus musculus", "assay": "Effect on body weight in chronic high-fat diet (2.5 w/w cholesterol, 0.5% w/w cholic acid, 10% w/w peanut oil) fed SKH-2 mouse at 56 umol/kg, ip bid for 30 days", "format": "ADME, organism-based", "conditions": "in vivo, 720 h"}, "Mus musculus [18]": {"tested_on": "Mus musculus", "assay": "Effect on blood glucose level in chronic high-fat diet (2.5 w/w cholesterol, 0.5% w/w cholic acid, 10% w/w peanut oil) fed SKH-2 mouse at 56 umol/kg, ip bid for 30 days", "format": "ADME, organism-based", "conditions": "in vivo, 720 h"}, "Glycine max": {"tested_on": "Glycine max", "assay": "Inhibition of soybean lipoxygenase using sodium linoleate as substrate up to 100 uM measured for 6 mins"}, "Mus musculus [19]": {"tested_on": "Mus musculus", "assay": "Antidyslipidemic activity in chronic high-fat diet (2.5 w/w cholesterol, 0.5% w/w cholic acid, 10% w/w peanut oil) fed SKH-2 mouse assessed as decrease in total cholesterol level in plasma at 56 umol/kg, ip bid for 30 days measured on day 30", "format": "functional", "conditions": "SKH-2, Plasma, 720 h"}, "Mus musculus [20]": {"tested_on": "Mus musculus", "assay": "Antidyslipidemic activity in chronic high-fat diet (2.5 w/w cholesterol, 0.5% w/w cholic acid, 10% w/w peanut oil) fed SKH-2 mouse assessed as decrease in total cholesterol level in plasma at 56 umol/kg, ip bid for 21 days", "format": "functional", "conditions": "SKH-2, Plasma, 504 h"}}, "note": "Active and inactive are the calls of the source. The calls are words filed in the database; no cut-off is given here.", "data": [{"smiles": "CN1CCOC(O)(c2ccc3c(c2)Nc2ccccc2S3)C1", "note": "(racemic)", "values": [{"measurement": "inhibition", "setting": "[1]", "value": 92, "unit": "%"}, {"measurement": "IC50", "setting": "Squalene synthase", "value": 5, "unit": "µM"}, {"measurement": "inhibition", "setting": "[2]", "value": "Dose-dependent effect"}, {"measurement": "IC50", "setting": "[3]", "value": 0.47, "unit": "µM"}, {"measurement": "Activity", "setting": "Mus musculus [4]", "value": "inactive"}, {"measurement": "inhibition in vivo at 56 µmol/kg", "setting": "Rattus norvegicus [5]", "value": 94, "unit": "%"}, {"measurement": "IC50", "setting": "[6]", "value": 191, "unit": "µM"}, {"measurement": "Activity", "setting": "[7]", "value": "Active"}, {"measurement": "Activity", "setting": "Mus musculus [8]", "value": "Non-toxic"}, {"measurement": "inhibition", "setting": "Mus musculus [9]", "value": "Active"}, {"measurement": "inhibition in vivo at 56 µmol/kg", "setting": "Rattus norvegicus [10]", "value": 70, "unit": "%"}, {"measurement": "Activity", "setting": "Mus musculus [11]", "value": "Non-toxic"}, {"measurement": "inhibition in vivo at 56 µmol/kg", "setting": "Rattus norvegicus [12]", "value": 80, "unit": "%"}, {"measurement": "inhibition in vivo at 56 µmol/kg", "setting": "Mus musculus [13]", "value": 76, "unit": "%"}, {"measurement": "Activity", "setting": "Mus musculus [14]", "value": 120, "unit": "%"}, {"measurement": "Ratio", "setting": "Mus musculus [15]", "value": 1.2}, {"measurement": "inhibition in vivo at 56 µmol/kg", "setting": "Mus musculus [16]", "value": 58, "unit": "%"}, {"measurement": "Activity", "setting": "Mus musculus [17]", "value": "Non-toxic"}, {"measurement": "Activity", "setting": "Mus musculus [18]", "value": "Non-toxic"}, {"measurement": "inhibition", "setting": "Glycine max", "value": "inactive"}, {"measurement": "inhibition in vivo at 56 µmol/kg", "setting": "Mus musculus [19]", "value": 53, "unit": "%"}, {"measurement": "inhibition in vivo at 56 µmol/kg", "setting": "Mus musculus [20]", "value": 45, "unit": "%"}]}]}
